From US20260188423A1, “IDENTIFICATION OF CELL SURFACE ANTIGENS WHICH INDUCE T-CELL RESPONSES AND THEIR USES” (priority 2022, published 2026)
Entries after “also recorded” stand apart in the source; their conditions may differ. Where no end group is shown, it is not given here.

How the values were obtained:
HeLa cells = test: Cellular uptake of fluorescent-labeled peptide vaccines, fluorescent microscopy; assay type: cell-based, human
Experimental: Methods: In this experiment, the uptake of two fluorescent-labeled peptide vaccines was examined using a fluorescent microscope in cultured cells. HeLa cells were grown on cover slides for one day and then treated with peptide vaccines. Cells were fixed with 4% paraformaldehyde, washed with PBS, and analyzed with fluorescent microscopy.

[1] = system: Monocyte-derived dendritic cells; assay type: cell-based, human
[2] = system: peritoneal tumour biopsies; test: Transcriptome analysis of the Murcia patient's peritoneal tumour biopsies; details: target of 2nd generation personalized vaccines
Description: All the putative 8-20 amino acids long epitopes were created from these proteins and used for designing the 2nd generation of personalized vaccines according to the invention. […] These antigens have different length and amino acid sequences. All selected peptide antigen contains multiple highly ranked epitopes (13-66) presented on the cell surface by the patient's HLA class I and class II molecules. The range of the potency score is indicated for the selected epitopes. Epitopes presented by the patient's HLA class I and class II molecules are indicated to induce CD8 and CD4 responses, respectively. As described in the invention, the potency of each epitope in the vaccines was calculated and indicated to inform the physician about the predicted efficacy of the personalised vaccines in the recipient.

## Fluoresc-KSSQYIKANSKFIGITEAAALNVPMVATV-NH2 (fluorescein-KSSQYIKANSKFIGITEAAALNVPMVATV-NH2) [peptide vaccines (CD4-CD8), control peptide vaccine lacking the R8 component, reference compound]
HeLa cells; 120 minutes
  cellular uptake: poorly detectable cellular uptake

## Fluoresc-KSS-QYIKANSKFIGITE-RRRRRRRR-LNVPMVATV (fluorescein-KSSQYIKANSKFIGITERRRRRRRRLNVPMVATV)
[1]
  uptake in dendritic cells compared to the control vaccines: substantial increase in the uptake; also recorded: exceptional uptake

## Fluoresc-KSSQYIKANSKFIGITERRRRRRRRLNVPMVATV-NH2 (fluorescein-KSSQYIKANSKFIGITERRRRRRRRLNVPMVATV-NH2) [vaccine (CD4-R8-CD8)]
HeLa cells; 120 minutes
  cellular uptake: diffuse distribution throughout the cytoplasm and nucleus
HeLa cells; after 30 minutes and 120 minutes of incubation
  cellular uptake compared to the control vaccines: substantial increase in the uptake
HeLa cells; within 30 minutes
  cellular uptake: rapid uptake into both the cytoplasm and nucleus

B1: ATAD2 (protein, UniProt Q6PL18 1-1390, looked up)
ATPase family AAA …: MVVLRSSLELHNHSAASATGSLDLSSDFLSLEHIGRRRLRSAGAAQKKPAATTAKAGDGSSVKEVETYHRTRALRSLRKDAQNSSDSSFEKNVEITEQLANGRHFTRQLARQQADKKKEEHREDKVIPVTRSLRARNIVQSTEHLHEDNGDVEVRRSCRIRSRYSGVNQSMLFDKLITNTAEAVLQKMDDMKKMRRQRMRELEDLGVFNETEESNLNMYTRGKQKDIQRTDEETTDNQEGSVESSEEGEDQEHEDDGEDEDDEDDDDDDDDDDDDDDEDDEDEEDGEEENQKRYYLRQRKATVYYQAPLEKPRHQRKPNIFYSGPASPARPRYRLSSAGPRSPYCKRMNRRRHAIHSSDSTSSSSSEDEQHFERRRKRSRNRAINRCLPLNFRKDELKGIYKDRMKIGASLADVDPMQLDSSVRFDSVGGLSNHIAALKEMVVFPLLYPEVFEKFKIQPPRGCLFYGPPGTGKTLVARALANECSQGDKRVAFFMRKGADCLSKWVGESERQLRLLFDQAYQMRPSIIFFDEIDGLAPVRSSRQDQIHSSIVSTLLALMDGLDSRGEIVVIGATNRLDSIDPALRRPGRFDREFLFSLPDKEARKEILKIHTRDWNPKPLDTFLEELAENCVGYCGADIKSICAEAALCALRRRYPQIYTTSEKLQLDLSSINISAKDFEVAMQKMIPASQRAVTSPGQALSTVVKPLLQNTVDKILEALQRVFPHAEFRTNKTLDSDISCPLLESDLAYSDDDVPSVYENGLSQKSSHKAKDNFNFLHLNRNACYQPMSFRPRILIVGEPGFGQGSHLAPAVIHALEKFTVYTLDIPVLFGVSTTSPEETCAQVIREAKRTAPSIVYVPHIHVWWEIVGPTLKATFTTLLQNIPSFAPVLLLATSDKPHSALPEEVQELFIRDYGEIFNVQLPDKEERTKFFEDLILKQAAKPPISKKKAVLQALEVLPVAPPPEPRSLTAEEVKRLEEQEEDTFRELRIFLRNVTHRLAIDKRFRVFTKPVDPDEVPDYVTVIKQPMDLSSVISKIDLHKYLTVKDYLRDIDLICSNALEYNPDRDPGDRLIRHRACALRDTAYAIIKEELDEDFEQLCEEIQESRKKRGCSSSKYAPSYYHVMPKQNSTLVGDKRSDPEQNEKLKTPSTPVACSTPAQLKRKIRKKSNWYLGTIKKRRKISQAKDDSQNAIDHKIESDTEETQDTSVDHNETGNTGESSVEENEKQQNASESKLELRNNSNTCNIENELEDSRKTTACTELRDKIACNGDASSSQIIHISDENEGKEMCVLRMTRARRSQVEQQQLITVEKALAILSQPTPSLVVDHERLKNLLKTVVKKSQNYNIFQLENLYAVISQCIYRHRKDHDKTSLIQKMEQEVENFSCSR
[2]
  Relative expression: 9
